The text below walks through data of patent publication US11173151B2, “Substituted triazole derivatives and uses thereof” (BAYER AKTIENGESELLSCHAFT, priority 2017, dated 2021).

One assay concerns the target T1, human V2 receptor (Homo sapiens, UniProt P30518).
T1 construct: expressed in transfected cells; host or cells: CHO K1 (ATCC) expressing firefly luciferase under a CRE-responsive promoter
Put plainly: Cellular in vitro assay for determining vasopressin receptor activity, V2 receptor cell line (CHO, CRE-luciferase). The class given is cell-based. The conditions noted are these: CHO cell line transfected with human V2 receptor; [Arg8]-vasopressin at EC50 concentration; read-out: IC50 hV2.

The target in another assay is T2, human V1a receptor (Homo sapiens, UniProt P37288).
T2 construct: expressed in transfected cells; host or cells: CHO K1 (ATCC), also stably transfected with a modified aequorin
T2 sequence (P37288 whole entry): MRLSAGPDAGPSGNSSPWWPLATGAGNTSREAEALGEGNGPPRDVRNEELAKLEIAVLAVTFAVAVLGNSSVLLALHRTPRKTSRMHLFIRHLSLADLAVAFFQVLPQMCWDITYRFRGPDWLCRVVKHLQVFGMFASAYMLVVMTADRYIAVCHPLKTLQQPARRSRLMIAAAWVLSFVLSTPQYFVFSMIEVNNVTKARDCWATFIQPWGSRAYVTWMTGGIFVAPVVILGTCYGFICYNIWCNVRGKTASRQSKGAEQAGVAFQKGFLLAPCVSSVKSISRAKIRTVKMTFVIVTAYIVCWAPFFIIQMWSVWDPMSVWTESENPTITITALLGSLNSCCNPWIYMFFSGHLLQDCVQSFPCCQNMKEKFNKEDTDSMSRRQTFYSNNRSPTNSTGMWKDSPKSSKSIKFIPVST
Put plainly: Cellular in vitro assay for determining vasopressin receptor activity, V1a receptor cell line (CHO, aequorin luminescence). The format is cell-based. The settings on record: for pIC50: CHO cell line transfected with human V1a receptor, [Arg]-vasopressin at EC50 concentration, read-out: IC50 hV1a; for ratio IC50 hV2/hV1a: selectivity ratio IC50 hV2 / IC50 hV1a. In short, it runs like this: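 CHO K1/aequorin cells, coelenterazine 5 μg/ml o/n; cpd 10 min; [Arg]-vasopressin at EC50; luminescence read immediately; IC50.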

pIC50: −log10 of the molar value.

T1 sequence (P30518 whole entry): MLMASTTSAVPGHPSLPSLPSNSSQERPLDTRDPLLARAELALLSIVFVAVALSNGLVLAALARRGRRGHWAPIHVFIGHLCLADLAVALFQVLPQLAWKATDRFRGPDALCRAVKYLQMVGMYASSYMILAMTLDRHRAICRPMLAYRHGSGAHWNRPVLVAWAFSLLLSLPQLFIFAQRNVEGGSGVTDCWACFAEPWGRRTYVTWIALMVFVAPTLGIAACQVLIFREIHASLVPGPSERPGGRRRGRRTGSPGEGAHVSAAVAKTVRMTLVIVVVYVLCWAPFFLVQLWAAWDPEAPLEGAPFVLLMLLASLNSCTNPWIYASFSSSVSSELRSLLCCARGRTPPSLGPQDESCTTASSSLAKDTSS

What is called pIC50 is the IC50 on a negative log10 scale, so that one unit is a factor of ten. `O=C(NCC(F)(F)F)c1ncccc1-n1cnc(Cn2nc(-c3ccc(Cl)cc3)n(C[C@@H](O)C(F)(F)F)c2=O)n1` [Example 457, 3-[3-({3-(4-Chlorophenyl)-5-oxo-4-[(2R)-3,3,3-trifluoro-2-hydroxypropyl]-4,5-dihydro-1H-1,2,4-triazol-1-yl}methyl)-1H-1,2,4-triazol-1-yl]-N-(2,2,2-trifluoroethyl)pyridine-2-carboxamide]: the negative logarithm of the IC50 (pIC50) on human V2 receptor is 5.28; at human V1a receptor, 6.68. For the same compound, the “ratio IC50 hV2/hV1a” value at human V1a receptor turned out to be 25.2.

For `O=C(NC1CC1)c1ncccc1-n1cnc(Cn2nc(-c3ccc(Cl)cc3)n(C[C@@H](O)C(F)(F)F)c2=O)n1` [Example 458, 3-[3-({3-(4-Chlorophenyl)-5-oxo-4-[(2R)-3,3,3-trifluoro-2-hydroxypropyl]-4,5-dihydro-1H-1,2,4-triazol-1-yl}methyl)-1H-1,2,4-triazol-1-yl]-N-cyclopropylpyridine-2-carboxamide], the negative-log IC50 (pIC50) at human V2 receptor was 5.22; at human V1a receptor it was 7.00. For the same compound, at human V1a receptor, the “ratio IC50 hV2/hV1a” value worked out at 60.5.

As to `O=C(NCC1CC1)c1ncccc1-n1cnc(Cn2nc(-c3ccc(Cl)cc3)n(C[C@@H](O)C(F)(F)F)c2=O)n1` [Example 459, 3-[3-({3-(4-Chlorophenyl)-5-oxo-4-[(2R)-3,3,3-trifluoro-2-hydroxypropyl]-4,5-dihydro-1H-1,2,4-triazol-1-yl}methyl)-1H-1,2,4-triazol-1-yl]-N-(cyclopropylmethyl)pyridine-2-carboxamide], the pIC50 on human V2 receptor was 5.36. Besides, at human V1a receptor, the pIC50 is 6.68 and the “ratio IC50 hV2/hV1a” value is reported as 21.0.

For the compound `O=C(NC1CC1(F)F)c1ncccc1-n1cnc(Cn2nc(-c3ccc(Cl)cc3)n(C[C@@H](O)C(F)(F)F)c2=O)n1` (stereo partly drawn) [Example 460, 3-[3-({3-(4-Chlorophenyl)-5-oxo-4-[(2R)-3,3,3-trifluoro-2-hydroxypropyl]-4,5-dihydro-1H-1,2,4-triazol-1-yl}methyl)-1H-1,2,4-triazol-1-yl]-N-[2,2-difluorocyclopropyl]pyridine-2-carboxamide], the pIC50 on human V2 receptor was 5.40. For the same compound, at human V1a receptor, the negative logarithm of the IC50 (pIC50) is 6.89 and the “ratio IC50 hV2/hV1a” value turned out to be 30.4.

With `NC(=O)[C@@H]1CC(F)(F)CN1C(=O)c1ncccc1-n1cnc(Cn2nc(-c3ccc(Cl)cc3)n(C[C@@H](O)C(F)(F)F)c2=O)n1` [Example 461, 1-({3-[3-({3-(4-Chlorophenyl)-5-oxo-4-[(2R)-3,3,3-trifluoro-2-hydroxypropyl]-4,5-dihydro-1H-1,2,4-triazol-1-yl}methyl)-1H-1,2,4-triazol-1-yl]pyridin-2-yl}carbonyl)-4,4-difluoro-L-prolinamide], the negative-log IC50 (pIC50) at human V2 receptor was 4.66; at human V1a receptor it was 5.96. In addition, at human V1a receptor, the “ratio IC50 hV2/hV1a” value was 20.0.

On to `O=C(NC1CC1F)c1ncccc1-n1cnc(Cn2nc(-c3ccc(Cl)cc3)n(C[C@@H](O)C(F)(F)F)c2=O)n1` (stereo partly drawn) [Example 462, 3-[3-({3-(4-Chlorophenyl)-5-oxo-4-[(2R)-3,3,3-trifluoro-2-hydroxypropyl]-4,5-dihydro-1H-1,2,4-triazol-1-yl}methyl)-1H-1,2,4-triazol-1-yl]-N-[2-fluorocyclopropyl]pyridine-2-carboxamide], for which the pIC50 at human V2 receptor is 5.23. Besides, on human V1a receptor, the pIC50 is 7.01 and the “ratio IC50 hV2/hV1a” value was 61.3.

`O=C(c1ncccc1-n1cnc(Cn2nc(-c3ccc(Cl)cc3)n(C[C@@H](O)C(F)(F)F)c2=O)n1)N1CCC(F)(F)C1` [Example 463, 5-(4-Chlorophenyl)-2-[(1-{2-[(3,3-difluoropyrrolidin-1-yl)carbonyl]pyridin-3-yl}-1H-1,2,4-triazol-3-yl)methyl]-4-[(2R)-3,3,3-trifluoro-2-hydroxypropyl]-2,4-dihydro-3H-1,2,4-triazol-3-one]: at human V2 receptor, the pIC50 is 4.49. On human V1a receptor, the pIC50 was 6.63 and the “ratio IC50 hV2/hV1a” value worked out at 136.2.

With `CC1(C)CN(C(=O)c2ncccc2-n2cnc(Cn3nc(-c4ccc(Cl)cc4)n(C[C@@H](O)C(F)(F)F)c3=O)n2)CCO1` [Example 464, 5-(4-Chlorophenyl)-2-[(1-{2-[(2,2-dimethylmorpholin-4-yl)carbonyl]pyridin-3-yl}-1H-1,2,4-triazol-3-yl)methyl]-4-[(2R)-3,3,3-trifluoro-2-hydroxypropyl]-2,4-dihydro-3H-1,2,4-triazol-3-one], the negative logarithm of the IC50 (pIC50) was 4.49 at human V2 receptor and 7.22 at human V1a receptor. The “ratio IC50 hV2/hV1a” value on human V1a receptor is recorded as 533.3.

`O=C(NC1CC(F)(F)C1)c1ncccc1-n1cnc(Cn2nc(-c3ccc(Cl)cc3)n(C[C@@H](O)C(F)(F)F)c2=O)n1` [Example 465, 3-[3-({3-(4-Chlorophenyl)-5-oxo-4-[(2R)-3,3,3-trifluoro-2-hydroxypropyl]-4,5-dihydro-1H-1,2,4-triazol-1-yl}methyl)-1H-1,2,4-triazol-1-yl]-N-(3,3-difluorocyclobutyl)pyridine-2-carboxamide]: the pIC50 at human V2 receptor was 5.44. Moreover, at human V1a receptor, the negative-log IC50 (pIC50) was 6.77 and the “ratio IC50 hV2/hV1a” value turned out to be 21.2.

On to `CC1CN(C(=O)c2ncccc2-n2cnc(Cn3nc(-c4ccc(Cl)cc4)n(C[C@@H](O)C(F)(F)F)c3=O)n2)CCO1` (stereo partly drawn) [Example 466, 5-(4-Chlorophenyl)-2-{[1-(2-{[2-methylmorpholin-4-yl]carbonyl}pyridin-3-yl)-1H-1,2,4-triazol-3-yl]methyl}-4-[(2R)-3,3,3-trifluoro-2-hydroxypropyl]-2,4-dihydro-3H-1,2,4-triazol-3-one], for which the pIC50 on human V2 receptor was 4.18. At human V1a receptor, the pIC50 was 6.15 and the “ratio IC50 hV2/hV1a” value worked out at 93.0.

`O=C(c1ncccc1-n1cnc(Cn2nc(-c3ccc(Cl)cc3)n(C[C@@H](O)C(F)(F)F)c2=O)n1)N1CCC(O)(C(F)(F)F)C1` (stereo partly drawn) [Example 468, 5-(4-Chlorophenyl)-2-{[1-(2-{[3-hydroxy-3-(trifluoromethyl)pyrrolidin-1-yl]carbonyl}pyridin-3-yl)-1H-1,2,4-triazol-3-yl]methyl}-4-[(2R)-3,3,3-trifluoro-2-hydroxypropyl]-2,4-dihydro-3H-1,2,4-triazol-3-one]: the pIC50 on human V2 receptor is 4.49. Also, at human V1a receptor, the pIC50 was 6.38 and the “ratio IC50 hV2/hV1a” value came out at 76.2.

As to `O=C(c1ncccc1-n1cnc(Cn2nc(-c3ccc(Cl)cc3)n(C[C@@H](O)C(F)(F)F)c2=O)n1)N1CCOC(C(F)(F)F)C1` (stereo partly drawn) [Example 470, 5-(4-Chlorophenyl)-4-[(2R)-3,3,3-trifluoro-2-hydroxypropyl]-2-{[1-(2-{[2-(trifluoromethyl)morpholin-4-yl]carbonyl}pyridin-3-yl)-1H-1,2,4-triazol-3-yl]methyl}-2,4-dihydro-3H-1,2,4-triazol-3-one], at human V2 receptor, the pIC50 is 4.49. On human V1a receptor, the pIC50 is 6.12 and the “ratio IC50 hV2/hV1a” value was 42.7.

As for `O=C(c1ncccc1-n1cnc(Cn2nc(-c3ccc(Cl)cc3)n(C[C@@H](O)C(F)(F)F)c2=O)n1)N1CCCCC1` [Example 471, 5-(4-chlorophenyl)-2-({1-[2-(piperidin-1-ylcarbonyl)pyridin-3-yl]-1H-1,2,4-triazol-3-yl}methyl)-4-[(2R)-3,3,3-trifluoro-2-hydroxypropyl]-2,4-dihydro-3H-1,2,4-triazol-3-one], on human V2 receptor, the pIC50 was 4.68. Further, on human V1a receptor, the negative-log IC50 (pIC50) is 6.82 and the “ratio IC50 hV2/hV1a” value is 139.3.
